Measurements: patent publication US20120208204A1, “Compositions and Methods for Inhibiting Tumor Growth” (The Brigham and Women's Hospital, Inc., priority 2009, published 2012)
Read-outs that look alike come from different tables or passages of the source.

How the values were obtained:
PAK3 = target: T1, PAK3 (Homo sapiens, UniProt O75914); experiment: Enzyme based PAK3 kinase assay (HTRF / TR-FRET), IC50; type: biochemical; conditions: PAK3 inhibitory compounds; IC50 done in quadruplicate
T1 construct: Recombinant human full length PAK3 enzyme was obtained (Invitrogen); purchased Invitrogen
T1 sequence (O75914 1-544 isoform O75914-2): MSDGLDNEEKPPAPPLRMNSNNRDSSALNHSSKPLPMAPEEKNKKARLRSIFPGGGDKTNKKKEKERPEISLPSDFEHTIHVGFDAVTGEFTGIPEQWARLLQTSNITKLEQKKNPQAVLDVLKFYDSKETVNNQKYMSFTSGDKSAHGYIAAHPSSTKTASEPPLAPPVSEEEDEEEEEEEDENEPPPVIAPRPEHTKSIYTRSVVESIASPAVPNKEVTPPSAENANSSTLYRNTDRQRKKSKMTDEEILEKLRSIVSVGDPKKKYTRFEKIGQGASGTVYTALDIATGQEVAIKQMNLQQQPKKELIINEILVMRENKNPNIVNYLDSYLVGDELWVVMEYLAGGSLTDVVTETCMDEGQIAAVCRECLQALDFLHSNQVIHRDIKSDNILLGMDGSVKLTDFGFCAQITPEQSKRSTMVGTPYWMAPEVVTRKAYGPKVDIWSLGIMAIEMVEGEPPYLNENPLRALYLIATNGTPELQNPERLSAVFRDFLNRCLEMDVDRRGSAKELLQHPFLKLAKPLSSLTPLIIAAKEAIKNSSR
Experimental: Recombinant human full length PAK3 enzyme was obtained (Invitrogen), immediately aliquoted and kept in storage buffer as purchased at −80° C. for long term storage. The HTRF® KinEASE™ kit (CisBio) containing 5× stock solution of the enzymatic buffer and 1× detection buffer, STK substrate 2-biotin (S2), a phosphospecific monoclonal Europium-labeled Cryptate antibody, which recognizes a phospholylation epitope of the biotinylated peptide, as donor fluorophore and Stretptavadin-linked XL665 (SA-XL665) representing the acceptor fluorophor were used for TR-FRET assays. The compound library consisted of approximately 125,000 small molecules, including compounds approved by the Food and Drug Administration (FDA), a purified natural products library and commercially available compounds from various vendors. All small molecules generally adhere to Lipinski's rules and have been optimized for maximization of molecular diversity.
An enzyme based kinase assay was carried out using full length recombinant PAK3 kinase. A model biotinylated peptide RRRSLLE (SEQ ID NO:5) was used as the substrate. Detection was done by Homogeneous Time Resolve Fluorescence (HTRF) with an antibody that recognizes the phosphorylation site on the peptide.
TR-FRET assays were carried out as follows. A CRS CataLyst Express robotic arm and a Cybi-well 384 channel simultaneous pipettor were used to carry out the High-Throughput Screen. Kinase reactions were performed in 50 mM HEPES, pH 7.0, 0.02% NaN3, 2 mM MgCl2, 0.01% BSA, 0.1 mM Orthonanadate, 1 mM DTT, 0.001% Tween-20, 0.001% Brij-35 using ProxiPlate-384 Plus white assay plates. […] The kinase reaction was initiated by addition of […] per reaction (25 μM ATP final, at the Km). The reaction was incubated for 30 minutes at room temperature. Reaction was terminated by addition of 10 μl of a premixed solution of EDTA, Europium cryptate-labeled antibody and fluorophore-conjugated streptavadin. After overnight incubation at room temperature, TR-FRET measurements were performed using a PHERAstar HTS microplate reader, and were expressed as ratios of acceptor fluorescence at 665 nm over donor fluorescence at 620 nm.
(§1) Data were analyzed using GraphPad Prism Version 5 (GraphPad Software Inc., La Jolla, Calif., USA). Each compound plate included one column of negative controls, were no enzyme was added, and another column for positive controls when no inhibitor compound was added; these were used to calculate Z′ factors and signal to noise ratios throughout the screen. […] IC50 determinations were done in quadruplicate for each compound using different adding sequences for compound and enzyme-substrate-mix. EC50 determinations were done in triplicate for each compound using different time points. For calculation of IC50 and EC50 concentrations, respectively, mean inhibition dose response curves were fitted to the sigmoidal response equation: Y=Bottom+(Top−Bottom)/(1+10̂((X−LogIC50))) were X is log(compound concentration) and Y is % inhibition, and Bottom and Top are the lower and upper plateau. Km concentrations were determined by non-linear regression curve fitting, using the equation: Y=Vmax*X/(Km+X), where X is the substrate concentration.

HeLa cells = experiment: Cell-based assay in HeLa cells (AlamarBlue cell viability), EC50; parameters: species or system human
Experimental: HeLa cells (ATCC) were maintained in Dulbecco's modified Eagle medium (DMEM) supplemented with 10% fetal bovine serum and 1% Penicillin/Streptomycin. Approximately 200 to 500 cells per well were seeded in a 96 well tissue culture plates. Following 24 h growth in normal DMEM, the individual compounds were warmed up to room temperature and diluted in DMEM to their according concentration and then immediately added to the wells. One column on each assay plate contained DMEM only (“neg. control”) and one column contained untreated HeLa cells as “pos. control”. Cells were treated with the compounds at various cell densities and for treatment periods ranging between 75 hrs and approx. 200 hrs. To control for cell viability, we assayed plates using AlamarBlue° (Invitrogen), which uses a redox reaction to measure metabolically active viable cells. At each time point the culture media was removed and a solution of 10% AlamarBlue reagent and DMEM was added to each well to measure cell viability. Fluorescence was measured after 1-2 hrs incubation at 37 C on a Victor^2 Plate Reader (PerkinElmer).
as §1
Compounds were tested in a cell-based assay (HeLa cells). IC50 and EC50 are expressed in micromolar units.

SGK2 = experiment: Inhibition of kinase activity by SGK2 inhibitory compounds, single concentration; type: biochemical; conditions: 10 μM compound
Excerpt: A library of compounds was screened for inhibitors of SGK2 and PAK3 activity by assaying phosphorylation of a generic peptide substrate either directly; or indirectly by inhibiting upstream kinase PDK1 from activating the enzyme in vitro. In both cases, the phosphorylated substrate was detected using a specific anti-phospho peptide antibody that is coupled with Eu^3+ Cryptate and XL665 conjugated with streptavidin. […] All initial hits were re-assayed as a dose response series with eight 3-fold dilutions and resulting final concentrations ranged from 0.9 nM to 20 μM.

[1] = 75 h treatment, read-out: EC50 75 h
[2] = 150 h treatment, read-out: EC50 150 h
[3] = read-out: EC50 100 h, 100 h treatment

| SMILES | IC50 (PAK3) | EC50 (HeLa cells; [1]) | EC50 (HeLa cells; [2]) | EC50 (HeLa cells; [3]) | % Inhibition at 10 μM (SGK2) |
| --- | --- | --- | --- | --- | --- |
| Cc1ccc(-c2c(C#N)c(SCC(=O)c3ccc(O)c(O)c3)nc3c2CCCC3)o1 [LDN-0026056] | 0.69 µM | 13.9 µM | 18 µM | 16.9 µM |  |
| N#Cc1c(N)nc(SCc2ccccc2)c(C#N)c1-c1ccc(O)cc1 [LDN-0028618] | 0.3 µM | 13.3 µM | 18.1 µM | 16.6 µM | 87% |
| Cc1cc(-c2ccco2)c(C#N)c(SCC(=O)c2ccc(O)c(O)c2)n1 [LDN-0041012] | 0.61 µM | 4.6 µM | 3.4 µM | 4.6 µM | 95% |
| COc1ccc(-c2nc(-c3ccc(Sc4ccccc4)cc3)c(-c3ccccc3)[nH]2)cc1 [LDN-0044878] | 0.03 µM | 10.7 µM | 11.1 µM | 15.5 µM | 79% |
| Cc1nc(-c2ccccc2)c(-c2ccccc2)[nH]1 [LDN-0091420] | 10.1 µM | 38.2 µM | 42.5 µM | 40.7 µM |  |
| Cc1cc(C)c(C#N)c(SCC(=O)c2ccc(O)c(O)c2)n1 [LDN-0211955] | 3.53 µM | 17.6 µM | 23.3 µM | 34 µM |  |
| N#Cc1c(N)nc(SCc2ccccc2)c(C#N)c1-c1ccccc1Cl [LDN-0211958] | 0.33 µM | 11.2 µM | 10.6 µM | 11.6 µM |  |
| Cc1ccccc1-c1c(C#N)c(N)nc(SCc2ccccc2)c1C#N [LDN-0211959] | 0.28 µM | 11.1 µM | 10.4 µM | 12.7 µM |  |
